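Step 1: Grow cells in 96-well plates. Step 2: Expose to compound for 48 hours at 5 concentrations. Step 3: Interpolate endpoints linearly; if unreached, use highest concentration. At the TGI there is no net growth.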
Assays:
Assay in all cases: NCI tumour cell line growth inhibition, 48 h
[1] = system: UACC-257 melanoma
[2] = system: NCI-H226 lung
[3] = system: EKVX NSCLC
[4] = system: SK-OV-3 ovarian
[5] = system: MDA-N
[6] = system: BT-549 breast
[7] = system: HL-60(TB) leukemia
[8] = system: RXF 393 renal
[9] = system: UACC-62 melanoma
[10] = system: SR leukemia
[11] = system: T-47D breast
[12] = system: IGROV1 ovarian
[13] = system: OVCAR-5 ovarian
[14] = system: TK-10 renal
[15] = system: HS 578T breast
[16] = system: U251 CNS
[17] = system: A549 NSCLC
[18] = system: NCI/ADR-RES ovarian
[19] = system: SNB-19 CNS
[20] = system: CAKI-1 renal
[21] = system: MOLT-4 leukemia
[22] = system: M14 melanoma
[23] = system: K-562 leukemia
[24] = system: A498 renal
[25] = system: 786-0 renal
[26] = system: NCI-H23 lung
[27] = system: DU-145 prostate
[28] = system: MDA-MB-231 breast
[29] = system: SF-295 CNS
[30] = system: LOX IMVI melanoma
[31] = system: SK-MEL-5 melanoma
[32] = system: SNB-75 CNS
[33] = system: SN12C renal
[34] = system: PC-3 prostate
[35] = system: SK-MEL-28 melanoma
[36] = system: HCT-116 colon
[37] = system: RPMI-8226 leukemia
[38] = system: MCF7 breast
[39] = system: SK-MEL-2 melanoma
[40] = system: CCRF-CEM leukemia
[41] = system: MALME-3M melanoma
[42] = system: COLO 205 colon
[43] = system: ACHN renal
[44] = system: UO-31 renal
[45] = system: SW-620 colon
[46] = system: HT29 colon
[47] = system: OVCAR-8 ovarian
[48] = system: HOP-92 NSCLC
[49] = system: HOP-62 NSCLC
[50] = system: NCI-H522 lung
[51] = system: KM12 colon
[52] = system: SF-268 CNS
[53] = system: MDA-MB-435
[54] = system: SF-539 CNS
[55] = system: OVCAR-3 ovarian
[56] = system: OVCAR-4 ovarian
[57] = system: NCI-H460 lung
[58] = system: HCT-15 colon
[59] = system: HCC-2998 colon

`CC(C)(C)C1=NC(=P(c2ccccc2)(c2ccccc2)c2ccccc2)C(=O)O1` was tested, and the TGI [1] was over 100 µM, the TGI [2] was over 100 µM and the TGI [3] was over 100 µM. The TGI [4] was over 100 µM, the TGI [5] was over 100 µM and the TGI [6] was over 100 µM. For the same molecule, the TGI [7] was over 100 µM, the TGI [8] was over 100 µM and the TGI [9] was over 100 µM. It also gave a TGI [10] of over 100 µM, a TGI [11] of over 100 µM and a TGI [12] of over 100 µM. The TGI [13] was over 100 µM, the TGI [14] was over 100 µM and the TGI [15] was over 100 µM. It also gave a TGI [16] of over 100 µM, a TGI [17] of over 100 µM and a TGI [18] of over 100 µM. The TGI [19] was over 100 µM, the TGI [20] was over 100 µM and the TGI [21] was over 100 µM. The TGI [22] was over 100 µM, the TGI [23] was over 100 µM and the TGI [24] was over 100 µM. The TGI [25] was over 100 µM, the TGI [26] was over 100 µM and the TGI [27] was over 100 µM. It also gave a TGI [28] of over 100 µM, a TGI [29] of over 100 µM and a TGI [30] of over 100 µM. It also gave a TGI [31] of over 100 µM, a TGI [32] of 56.5 µM and a TGI [33] of over 100 µM. It also gave a TGI [34] of over 100 µM, a TGI [35] of over 100 µM and a TGI [36] of over 100 µM. It also gave a TGI [37] of over 100 µM, a TGI [38] of over 100 µM and a TGI [39] of over 100 µM. For the same molecule, the TGI [40] was over 100 µM, the TGI [41] was over 100 µM and the TGI [42] was over 100 µM. For the same molecule, the TGI [43] was over 100 µM, the TGI [44] was over 100 µM and the TGI [45] was over 100 µM. For the same molecule, the TGI [46] was over 100 µM, the TGI [47] was over 100 µM and the TGI [48] was over 100 µM. The TGI [49] was over 100 µM, the TGI [50] was 90.8 µM and the TGI [51] was over 100 µM. It also gave a TGI [52] of over 100 µM and a TGI [53] of over 100 µM.

Molecule `O=C(CSc1nnc(-c2ccccn2)s1)N/N=C/c1ccc([N+](=O)[O-])cc1` has a TGI [1] of over 100 µM, a TGI [2] of over 100 µM and a TGI [4] of over 100 µM. It also gave a TGI [5] of over 100 µM, a TGI [6] of over 100 µM and a TGI [7] of over 100 µM. For the same molecule, the TGI [8] was 37.3 µM, the TGI [9] was over 100 µM and the TGI [10] was over 100 µM. The TGI [11] was over 100 µM, the TGI [12] was over 100 µM and the TGI [13] was over 100 µM. For the same molecule, the TGI [14] was 79 µM, the TGI [15] was over 100 µM and the TGI [16] was 41.2 µM. The TGI [17] was over 100 µM, the TGI [54] was over 100 µM and the TGI [18] was over 100 µM. The TGI [19] was 92.5 µM, the TGI [55] was over 100 µM and the TGI [20] was over 100 µM. It also gave a TGI [21] of over 100 µM, a TGI [22] of over 100 µM and a TGI [23] of over 100 µM. The TGI [24] was 75.3 µM, the TGI [56] was over 100 µM and the TGI [25] was over 100 µM. It also gave a TGI [26] of over 100 µM, a TGI [27] of 49.5 µM and a TGI [28] of 49.1 µM. For the same molecule, the TGI [29] was over 100 µM, the TGI [30] was over 100 µM and the TGI [31] was over 100 µM. It also gave a TGI [32] of 10.3 µM, a TGI [33] of over 100 µM and a TGI [34] of over 100 µM. It also gave a TGI [35] of over 100 µM, a TGI [36] of over 100 µM and a TGI [38] of over 100 µM. It also gave a TGI [39] of over 100 µM, a TGI [40] of over 100 µM and a TGI [41] of over 100 µM. The TGI [57] was over 100 µM, the TGI [42] was over 100 µM and the TGI [43] was over 100 µM. For the same molecule, the TGI [44] was 4.19 µM, the TGI [45] was over 100 µM and the TGI [46] was over 100 µM. The TGI [47] was over 100 µM, the TGI [48] was 42.3 µM and the TGI [49] was over 100 µM. The TGI [50] was over 100 µM, the TGI [51] was over 100 µM and the TGI [52] was 71.9 µM. It also gave a TGI [53] of over 100 µM and a TGI [58] of over 100 µM.

For `COc1cc(/C=C2\C[C@H]3[C@@H]4CC=C5C[C@@H](OC(C)=O)CC[C@]5(C)[C@H]4CC[C@]3(C)\C2=N\O)cc(OC)c1OC`, the TGI [1] was over 100 µM, the TGI [2] was over 100 µM and the TGI [59] was over 100 µM. It also gave a TGI [3] of over 81.9 µM, a TGI [4] of over 100 µM and a TGI [5] of over 100 µM. The TGI [6] was over 90.8 µM, the TGI [7] was 15.8 µM and the TGI [8] was 4.28 µM. It also gave a TGI [9] of 45.6 µM, a TGI [10] of 14.8 µM and a TGI [11] of 5.22 µM. For the same molecule, the TGI [12] was over 100 µM, the TGI [13] was over 100 µM and the TGI [14] was over 100 µM. The TGI [15] was over 100 µM, the TGI [16] was over 86.3 µM and the TGI [17] was over 100 µM. For the same molecule, the TGI [54] was over 92.4 µM, the TGI [18] was over 88.9 µM and the TGI [19] was over 100 µM. The TGI [55] was over 100 µM, the TGI [20] was over 60.2 µM and the TGI [21] was over 25.5 µM. For the same molecule, the TGI [22] was over 100 µM, the TGI [23] was over 100 µM and the TGI [56] was over 83.7 µM. For the same molecule, the TGI [25] was over 43.3 µM, the TGI [26] was over 100 µM and the TGI [27] was over 100 µM. It also gave a TGI [28] of over 100 µM, a TGI [29] of 13 µM and a TGI [30] of 38.4 µM. The TGI [31] was 14.7 µM, the TGI [32] was over 43.3 µM and the TGI [33] was over 100 µM. The TGI [34] was 18.6 µM, the TGI [35] was over 72.1 µM and the TGI [36] was over 100 µM. For the same molecule, the TGI [37] was 3.08 µM, the TGI [38] was over 100 µM and the TGI [39] was 76.6 µM. It also gave a TGI [40] of over 30.6 µM, a TGI [41] of over 60.9 µM and a TGI [57] of over 100 µM. The TGI [42] was 17.8 µM, the TGI [43] was over 32.8 µM and the TGI [44] was 95 µM. The TGI [45] was over 100 µM, the TGI [46] was over 68.4 µM and the TGI [47] was over 100 µM. The TGI [48] was 9.43 µM, the TGI [49] was over 100 µM and the TGI [50] was over 49.8 µM. For the same molecule, the TGI [51] was over 100 µM, the TGI [52] was over 100 µM and the TGI [53] was over 91.3 µM. For the same molecule, the TGI [58] was over 100 µM.

From PubChem BioAssay (NCI)
